According to patent publication US20080182882A1, “N-HYDROXYAMIDINOHETEROCYCLES AS MODULATORS OF INDOLEAMINE 2,3-DIOXYGENASE” (INCYTE CORPORATION, priority 2006, published 2008):

Experiments:
[1] = biological target: T1, Human indoleamine 2,3-dioxygenasae (IDO) (Homo sapiens, UniProt P14902); test: Human indoleamine 2,3-dioxygenase (IDO) enzyme assay; format: biochemical; details: 95 nM IDO, 2 mM D-Trp, pH 6.5, room temperature
T1 construct: His tag (N); made in house; host or cells: E. coli
Method: Human indoleamine 2,3-dioxygenasae (IDO) with an N-terminal His tag was expressed in E. coli and purified to homogeneity. IDO catalyzes the oxidative cleavage of the pyrrole ring of the indole nucleus of tryptophan to yield N′-formylkynurenine. The assays were performed at room temperature as described in the literature using 95 nM IDO and 2 mM D-Trp in the presence of 20 mM ascorbate, 5 μM methylene blue and 0.2 mg/mL catalase in 50 mM potassium phosphate buffer (pH 6.5). The initial reaction rates were recorded by continuously following the absorbance increase at 321 nm due to the formation of N′-formlylkynurenine. See: Sono, M., Taniguchi, T., Watanabe, Y., and Hayaishi, O. (1980) J. Biol. Chem. 255, 1339-1345 Compound activity is provided in Table 2 below.

[2] = biological target: T2, indoleamine 2,3-dioxygenase (IDO) in HeLa cells (Homo sapiens, UniProt P14902); test: HeLa cell-based indoleamine 2,3-dioxygenase (IDO)/kynurenine assay; details: IFN-γ 50 ng/mL, 48 hours incubation, kynurenine at 480 nm
T2 construct: host or cells: HeLa cells, IFN-γ induced
T2 sequence (P14902 whole entry): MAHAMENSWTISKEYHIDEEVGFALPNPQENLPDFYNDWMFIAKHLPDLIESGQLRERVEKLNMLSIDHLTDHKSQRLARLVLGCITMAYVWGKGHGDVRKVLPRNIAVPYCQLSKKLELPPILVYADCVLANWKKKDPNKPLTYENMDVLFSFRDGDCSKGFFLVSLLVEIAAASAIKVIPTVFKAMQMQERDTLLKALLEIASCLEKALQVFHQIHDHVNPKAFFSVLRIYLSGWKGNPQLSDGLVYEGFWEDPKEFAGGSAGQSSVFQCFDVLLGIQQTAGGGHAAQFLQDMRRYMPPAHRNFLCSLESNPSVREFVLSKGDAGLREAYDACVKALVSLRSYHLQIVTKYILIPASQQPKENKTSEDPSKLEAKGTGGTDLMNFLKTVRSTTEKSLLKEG
Method: HeLa cells (#CCL-2) can be obtained from the American Type Tissue Culture Collection (ATCC, Manassas, Va.) and routinely maintained in minimum essential medium (eagle) with 2 mM L-glutamine and Earle's BSS adjusted to contain 1.5 g/L sodium bicarbonate, 0.1 mM non-essential amino acids, 1 mM sodium pyruvate and 10% fetal bovine serum (all from Invitrogen). Cells are kept at 37° C. in a humidified incubator supplied with 5% CO2. The assay is performed as follows: HeLa cells are seeded in a 96 well culture plate at a density of 5×10^3 per well and grown overnight. On the next day, IFN-γ (50 ng/mL final concentration) and serial dilutions of compounds (in total volume of 200 μL culture medium) are added into cells. After 48 hours of incubation, 140 μL of the supernatant per well is transferred to a new 96 well plate. 10 μL of 6.1 N trichloroacetic acid (#T0699, Sigma) is mixed into each well and incubated at 50° C. for 30 min to hydrolyze N-formylkynurenine produced by indoleamine 2,3-dioxygenase to kynurenine. […] The yellow color derived from Kynurenine is measured at 480 nm using a SPECTRAmax 250 microplate reader (Molecular Devices). […] The percent inhibition at individual concentrations is determined and the average values of duplicates are obtained. The data is analyzed by using nonlinear regression to generate IC50 values (Prism Graphpad). […]

LLC tumors = LLC tumors in C57B1/6 mice, versus placebo (Friberg, M., et al); cited from earlier work
P815 tumor = details: pre-immunized immune-competent mice, IDO-expressing tumors (Uyttenhove, C., et al); cited from earlier work

T1 sequence (P14902 whole entry): as above

Row | Structure (SMILES) | IC50 [1] [nM] | IC50 [2] [nM] | formation of tumors (LLC tumors) | growth of tumors (P815 tumor)
1 | Cc1ccc(Cl)cc1CNC(=NO)c1nonc1CO [Example 1, N-(5-chloro-2-methylbenzyl)-N′-hydroxy-4-(hydroxymethyl)-1,2,5-oxadiazole-3-carboximidamide] | < 1000 | < 500 |  | 
2 | Cn1cc(C[C@H](N)C(=O)O)c2ccccc21 [Example 1-MT, 1-methyl-tryptophan] |  |  | markedly delayed | inhibited
3 | OCc1nonc1C(=NO)NCc1cc(Cl)ccc1Cl [Example 2] | < 5000 |  |  | 

Further lines, with some results ahead:

Row | IC50 [1] [nM] | IC50 [2] [nM] | Structure (SMILES) | formation of tumors (LLC tumors) | growth of tumors (P815 tumor)
4 | < 5000 |  | Cc1ccc(C)c(CNC(=NO)c2nonc2CO)c1 [Example 4] |  | 
5 | < 1000 | < 500 | OCc1nonc1C(=NO)NCc1cc(Br)ccc1F [Example 3] |  | 
